Patent US20250387425A1 (ANDA BIOLOGY MEDICINE DEVELOPMENT (SHENZHEN) CO., LTD., priority 2022, published 2025)

Experiments:
[1] = system: neoantigen-specific T-cell clones in blood; assay: DNA-barcoded neoantigen-peptide-MHC tetramers with single-cell TCR sequencing (patient P6); assay type: cell-based, human; conditions: blood of patient P6
[2] = system: MX1; assay: Knock down of MX1 in PBMCs by siRNA, qPCR and tumor killing; assay type: cell-based, human; conditions: MX1 depletion by siRNA vs negative control oligonucleotides
Protocol: PBMCs were cultured in X-VIVO 15 medium (Lonza) supplemented with 10% Fetal Bovine Serum (Gemini), Penicillin-Streptomycin (Gibco), Antibiotic-Antimycotic (Gibco), 20 ng/ml recombinant human IL-7 (R&D), 50 U/ml recombinant human IL-2 (R&D) for one week. Then, TransIT-TKO kit (Mirus) was used to transient transfect MX1 siRNA into PBMCs. After 3 days of culture at 37° C., PBMCs were collected. A part of PBMCs co-incubated with tumor cells to test the killing effect of PBMCs after siRNA interference. The other part of PBMCs was extracted RNA with AllPrep DNA/RNA Kits (QIAGEN) and reverse transcription to cDNA with PrimeScript RT reagent Kit (Takara), and then used NovoStart SYBR qPCR SuperMix Plus (Novoprotein) performs qPCR to verify the efficiency of siRNA interference. The relative expressions of MX1 gene at the mRNA level was calculated by the 2-ΔΔCt method. GAPDH was used as a housekeeping gene.

Substance	tetramer-positive T-cell clones (peptide-MHC HLA-A*11:01 tetramer) [1]	anti-tumor ability of immune cells in PBMC [2]
YVECGKAFK [neoantigen-peptide-85-epitopel]	No tetramer-positive T-cell clones	–
5′-GCTTTGTGAATTACAGGACAT-3′ (only one strand given, further chemistry not given here) [MX1 siRNA, siRNA transiently transfected into PBMCs to knock down MX1]	–	remarkably impaired
